Experimental data taken from ChEMBL document CHEMBL3507680, “University of Dundee, Gates Library screen for HepG2 cell viability”.

Experiment: Human HepG2 cell viability assay in 384 well format
Format: toxicity, cell-based
Set-up: dose 125 nL, time 70.5 hour; concentration not given beside the values
Settings: HepG2 cells, read-out: Inhibition

Row | SMILES | cytotoxicity at 70.5 h
1 | CC1CCCCN1CCNC(=O)c1ccn(-c2cccc(F)c2)n1 (centres undefined) | -0.176%
2 | NS(=O)(=O)c1cccc(CNc2nccc(C(F)(F)F)n2)c1 | -5.9%
3 | CC(C)COCC(NC(=O)c1cnccn1)c1ccco1 (centres undefined) | -10.5%
4 | O=C(NCCc1ccccn1)C1CC(=O)N(CC(F)(F)F)C1 (centres undefined) | -2.42%
5 | CCCOc1cc(C)ccc1NC(=O)N(C)Cc1cnn(C)c1 | -4.07%
6 | Cc1ccc(F)c(NC(=O)NCCCn2nc3ccccn3c2=O)c1 | -3.3%
7 | CCc1nccn1C1CCCN(C(=O)c2ccoc2C)C1 (centres undefined) | 1.06%
8 | Cc1ccc(CC(=O)N2CCCC2Cn2nc(C)cc2C)cn1 (centres undefined) | -11.5%
9 | Cc1ccc(CC(=O)N2CCN(c3nccs3)CC2)s1 | 14.7%
10 | Cc1cc(C(=O)NC(COCC(C)C)c2ccco2)no1 (centres undefined) | -1.3%
11 | c1ncn(CC2CCCN(Cc3csc(-c4ccsc4)n3)C2)n1 (centres undefined) | 2.18%
12 | CC(Cn1cccn1)NCc1csc(COc2ccc(F)cc2)n1 (centres undefined) | -1.54%
13 | CCCc1nc(CNC(C)Cn2cccn2)cs1 (centres undefined) | 3.08%
14 | c1ccc2oc(CCCN3CCCC3c3noc(C4CC4)n3)nc2c1 (centres undefined) | 17.9%
15 | CC(C)C1CCCN1CCCc1nc(-c2cccs2)no1 (centres undefined) | 2.81%
16 | CC(O)CN1CCC(CNCc2cccc(Cl)c2)CC1 (centres undefined) | 12.3%
17 | COc1ccc(C(=O)N2CCCCC2c2nccs2)c(OC)c1 (centres undefined) | -6.39%
18 | Cc1noc(C)c1CN1CCCC(c2noc(C3CC3)n2)C1 (centres undefined) | -7.9%
19 | CCCc1nc(CN2CCCC(c3noc(C4CC4)n3)C2)no1 (centres undefined) | -4.77%
20 | COc1ccc(CCCNCc2c(C)nn(C)c2N(C)C)cc1OC | 4.5%
21 | Cc1ccc(S(=O)(=O)NC(=O)CCC2CCCO2)cc1 (centres undefined) | 0.693%
22 | O=C(CN1CCCC1c1cccs1)N1CCc2sccc2C1 (centres undefined) | -0.311%
23 | COc1cccc(S(=O)(=O)NC(=O)CCC2CCCO2)c1 (centres undefined) | 1.07%
24 | COc1cc(CNCc2c(C)nn(C)c2N(C)C)ccc1OCCO | 5.42%

Row | SMILES | cytotoxicity at 70.5 h
25 | O=C(NCCOC1CCCC1)c1ccc(-c2ccco2)[nH]c1=O | -2.19%
26 | O=C1COc2c(cccc2C(=O)N2CCCC(n3cccn3)C2)N1 (centres undefined) | 23.6%
27 | CC(O)CN1CCC(CNCc2ccc(C(N)=O)cc2)CC1 (centres undefined) | -0.474%
28 | Cc1ccc(CC(=O)N2CCN(C3CCOC3=O)CC2)cc1 (centres undefined) | -1.49%
29 | c1csc(-c2noc(CN3CCCC3Cn3cccn3)n2)c1 (centres undefined) | -2.35%
30 | Cn1nc2c(cc1=O)CN(Cc1coc(-c3ccc(F)cc3)n1)CC2 | 14.8%
31 | Cn1nc2c(cc1=O)CN(Cc1coc(-c3cccc(F)c3)n1)CC2 | -2.83%
32 | COc1ccc(COCC(=O)N2CCCC(n3cncn3)C2)cc1 (centres undefined) | 19.2%
33 | c1ccc(OCCN2CCCCC2Cn2cncn2)cc1 (centres undefined) | 23.7%
34 | O=C(NCc1nncn1-c1ccccc1)C1CCCC1 | -4.48%
35 | O=C(NCc1nncn1-c1ccccc1)C1CCCCC1 | -0.117%
36 | COc1ccc(CNC(=O)Nc2cccnc2N2CCCC2)cc1 | 20.6%
37 | CC(NC(=O)CCCOc1ccc(F)cc1)c1nnc2n1CCC2 (centres undefined) | -1.76%
38 | NC(=O)N1CCC(C(=O)NCc2nncn2-c2ccccc2)CC1 | 1.01%
39 | Cc1cnn(CC2CN(Cc3nc(-c4ccco4)no3)CCO2)c1 (centres undefined) | -0.209%
40 | O=C(NCC(=O)N1CCCC(n2cncn2)C1)OCc1ccccc1 (centres undefined) | -0.265%
41 | Cc1ccc(CCC(=O)N2CCCC(c3cc(C(N)=O)[nH]n3)C2)cc1 (centres undefined) | 0.115%
42 | COc1ccccc1C1(C(=O)N2CCCC(c3cc(C)[nH]n3)C2)CC1 (centres undefined) | -0.122%
43 | CCOCC(O)CN1CCN(C(=O)C2CCCC2)CC1 (centres undefined) | -0.535%
44 | Cc1ccc(N2CCCC(NCc3cccs3)C2)nn1 (centres undefined) | -1.01%
45 | Cc1ccc(N2CCCC(NCc3ccc4c(c3)OCCO4)C2)nn1 (centres undefined) | 1.38%
46 | c1cnn(CC2CN(Cc3nc(-c4ccoc4)no3)CCO2)c1 (centres undefined) | 24.3%
47 | Cc1ccc(N2CCCC(NCC3=Cc4ccccc4OC3)C2)nn1 (centres undefined) | -5.84%
48 | Cc1cnn(CC2CN(Cc3nc(-c4ccccn4)no3)CCO2)c1 (centres undefined) | 2.23%

Row | SMILES | cytotoxicity at 70.5 h
49 | Cc1nn(C)c(Cl)c1C1CCCN1CC(=O)Nc1cccnc1 (centres undefined) | -6.29%
50 | COc1cccc(COCC(=O)N2CCCC(n3cncn3)C2)c1 (centres undefined) | -1.04%
51 | CCOCC(O)CN1CCN(C(=O)C2CCCCC2)CC1 (centres undefined) | -0.878%
52 | Cc1nc(C)n(C2CCCN(C(=O)c3ncoc3C(C)C)C2)n1 (centres undefined) | -11.1%
53 | CC(C)Oc1ncccc1CNC(=O)c1cnccn1 | -5.94%
54 | CS(=O)(=O)NCC1CCCN(C(=O)c2ccco2)C1 (centres undefined) | -6.79%
55 | Cc1nn(C)c(C)c1C1CCCN1C(=O)c1cc[nH]n1 (centres undefined) | -3.7%
56 | c1cnnc(N2CCCC2CNc2ncnc3c2CCC3)c1 (centres undefined) | -2.98%
57 | COc1ccccc1C(=O)NC(C)CC(=O)O (centres undefined) | -7.64%
58 | Cc1cnn(CCNCc2cccnc2)c1 | -1.13%
59 | CC(C)n1ccnc1CN1CCCN(C(=O)COC2CCCC2)CC1 | -3.66%
60 | CC(C)(C)n1ncc2c1CCCC2NCc1cccc2c1OCO2 (centres undefined) | -1.84%
61 | Cc1nc(C2CCCN(C(=O)c3cccc(S(C)(=O)=O)c3)C2)no1 (centres undefined) | -9.98%
62 | CCn1ncc2c1CCCC2NCC1=Cc2ccccc2OC1 (centres undefined) | -12.8%
63 | Cc1cnn(CC(C)NCc2ccc(-n3cccn3)cc2)c1 (centres undefined) | 30.2%
64 | COc1ncccc1C(=O)N1CCN(C(=O)Cc2ccccn2)CC1 | 6.6%
65 | Cc1ccc(CC(=O)NCCCNS(C)(=O)=O)cc1 | 1.07%
66 | Cc1nc(CN2CCN(C(=O)c3ccn(C)c(=O)c3)CC2)cs1 | 7.44%
67 | CC(C)(C)NC(=O)C1CSCN1S(=O)(=O)c1ccc(F)cc1 (centres undefined) | -1.49%
68 | Cn1ccc(C(=O)N2CCN(CCc3ccccc3)CC2)cc1=O | -1.11%
69 | O=C(c1ccc(O)c(Cl)c1)N1CCC(c2n[nH]c(C3CC3)n2)CC1 | 36.5%
70 | CC(NC(=O)NCCCNS(C)(=O)=O)c1ccncc1 (centres undefined) | 1.41%
71 | CCn1cc(NC(=O)C2CCN(Cc3noc(C(C)C)n3)CC2)cn1 | 0.996%
72 | COCCCNC(=O)NCc1ccc(C)cc1 | 8.59%

Row | SMILES | cytotoxicity at 70.5 h
73 | CCc1nc(CC(=O)N2CCN(c3cnccn3)CC2)cs1 | -0.0277%
74 | CCCc1nc(CN2CCN(Cc3noc(CCC)n3)CC2)no1 | 11.4%
75 | O=C(CCNc1ncccn1)N1CCCC(n2ccnc2)C1 (centres undefined) | -2.71%
76 | CN(C)S(=O)(=O)c1ccc(OCCNCCn2cccn2)cc1 | 33.7%
77 | Cc1cc(C)n(C2CN(CC(=O)NC3CCOCC3)C2)n1 | -0.827%
78 | CCCc1n[nH]c(C2CN(CCCS(C)(=O)=O)CCO2)n1 (centres undefined) | -4.54%
79 | COc1c(CNCc2ccnc(N3CCCC3)c2)c(C)nn1C | -0.752%
80 | O=C(CCc1cscn1)N1CCCC(n2ccnc2)C1 (centres undefined) | 2.29%
81 | Cc1cccc(-c2nc(CN(Cc3cccs3)CC3CCCO3)no2)c1 (centres undefined) | -1.72%
82 | Cc1cnn(CC(C)NCc2csc(-c3ccsc3)n2)c1 (centres undefined) | -0.817%
83 | COc1cc(C(=O)N2CCC(c3n[nH]c(C4CC4)n3)CC2)ccc1C | 36.5%
84 | CC1CCN(S(=O)(=O)NCc2ccccc2Cn2cncn2)CC1 | -2.92%
85 | CC(C(=O)N1CCN(c2ccccc2Cl)CC1)n1cncn1 (centres undefined) | 10.3%
86 | COc1cc(/C=C/c2ncc(C(=O)O)s2)cc(Cl)c1O | 7.03%
87 | CN1CCCc2cc(CNC(=O)c3ccncc3)ccc21 | 33.4%
88 | CC(C)Sc1ncccc1C(=O)NCc1ccc(CS(C)(=O)=O)cc1 | 6.05%
89 | CN1N=C(C(=O)NCc2ccc3c(c2)CCCN3C)CCC1=O | 5.34%
90 | Cc1cc(C)c(CNC(=O)N2CCCC2c2ccccc2)c(=O)[nH]1 (centres undefined) | 2.02%
91 | Cc1cc(C)c(CNC(=O)N2CCCC2c2cccn2C)c(=O)[nH]1 (centres undefined) | 5.45%
92 | O=C(NCCNc1cnccn1)N1CCN(Cc2cccnc2)CC1 | 33.3%
93 | O=S(=O)(NCc1ccccc1Cn1cncn1)C1CCCC1 | 2.05%
94 | CC(=O)N1CCN(C(=O)C(C)n2cncn2)CC1 (centres undefined) | 5.31%
95 | Cc1cnn(C2CCCN(C(=O)c3ccnc(-n4ccnc4)c3)C2)c1 (centres undefined) | -0.996%
96 | CCOCCC(=O)N1CCCN(Cc2csc(CC)n2)CC1 | -0.403%

Row | SMILES | cytotoxicity at 70.5 h
97 | Cc1ccc(NC2CCN(C(=O)COCC(F)(F)F)CC2)nn1 | 10.1%
98 | Cc1n[nH]c(C2CN(C(=O)Cn3ccccc3=O)CCO2)n1 (centres undefined) | 7.95%
99 | CCCc1nc(CN2CCCC(Cn3cncn3)C2)no1 (centres undefined) | 3.03%
100 | COC(CNC(=O)N1CCC(n2cncn2)CC1)c1ccccc1 (centres undefined) | 6.02%
101 | Cc1ccc(N2CCCC(NCC(=O)NCC3CC3)C2)nn1 (centres undefined) | 1.19%
102 | CCc1nc(CN2CCCN(C(=O)CCc3ccco3)CC2)cs1 | 27.3%
103 | O=C(c1cnc(C2CC2)s1)N1CCCCC1Cn1cccn1 (centres undefined) | 0.664%
104 | CCc1cc(C)c(C(=O)N2CCCC2CC(=O)c2cnn(C)c2)o1 (centres undefined) | 6.36%
105 | CCc1nc(CN(C)C2CCN(CCn3cc(C#N)cn3)C2)no1 (centres undefined) | 37.1%
106 | c1csc(-c2nc(CN3CCOC(Cn4cncn4)C3)co2)c1 (centres undefined) | -0.51%
107 | O=C(c1cnc(-c2cccs2)s1)N1CCCN2CCCC2C1 (centres undefined) | -5.78%
108 | Cc1ccc(N2CCCC(NCc3cscn3)C2)nn1 (centres undefined) | -11.8%
109 | CCOc1nnc(CNC2CCCN(c3ccc(C)nn3)C2)s1 (centres undefined) | -1.05%
110 | Cc1ccc(NC2CCN(C(=O)Cc3csc(C)n3)CC2)nn1 | -9.75%
111 | COc1ccccc1C(=O)N1CCCC1Cn1cc(C)cn1 (centres undefined) | -14.4%
112 | CCCc1nc(CN2CCOC(CNc3cccnn3)C2)cs1 (centres undefined) | -11.7%
113 | CC(O)CN1CCN(C(=O)c2ccc(Cn3cccn3)cc2)CC1 (centres undefined) | -7.08%
114 | CCc1nc(CN(C)C2CCN(Cc3ccc(C#N)cc3F)C2)no1 (centres undefined) | 14.4%
115 | Cc1nn(C)c(Cl)c1C1CCCN1C(=O)c1nccnc1N (centres undefined) | -11.6%
116 | O=C(NCCc1cccc(F)c1)NCC(O)c1cccc(F)c1 (centres undefined) | -5.32%
117 | COCc1ccccc1CNCc1c(C)nn(C)c1N(C)C | -0.163%
118 | CN(C)c1ccc(CCNC(=O)NCc2ccc(N(C)C)nc2)cc1 | -3.36%
119 | Cn1ncc2c1CCCC2NCc1cccc(F)c1 (centres undefined) | -14.3%
